Tests used:
cultured PINK cells = assay: qRT-PCR gene expression in lenalidomide- or pomalidomide-treated cultured PINK cells; type: cell-based, human; details: treated vs untreated cultured PINK cells
From the text: RNA isolation and purification.
Quantitative real-time (qRT-PCR) analysis.

[1] = cited from earlier work

| SMILES | stability at higher relative humidities [1] | further results |
| --- | --- | --- |
| Nc1cccc2c1C(=O)N(C1CCC(=O)NC1=O)C2=O (racemic) [pomalidomide, 4-(Amino)-2-(2,6-dioxo(3-piperidyl))-isoindoline-1,3-dione] |  | Fold change of gene expression, LTA (cultured PINK cells): 2.68 fold |
| Nc1cccc2c1CN(C1CCC(=O)NC1=O)C2=O (stereo not shown) [Form B, 3-(4-amino-1-oxo-1,3 dihydro-isoindol-2-yl)-piperidene-2,6-dione] |  | stability in aqueous solvent systems ([1]; aqueous solvent systems): converts to Form E in aqueous solvent systems |
| Nc1cccc2c1CN(C1CCC(=O)NC1=O)C2=O (stereo not shown) [Form D, 3-(4-amino-1-oxo-1,3 dihydro-isoindol-2-yl)-piperidene-2,6-dione] | will typically convert to Form B |  |
| Nc1cccc2c1CN(C1CCC(=O)NC1=O)C2=O (stereo not shown) [Form C, 3-(4-amino-1-oxo-1,3 dihydro-isoindol-2-yl)-piperidene-2,6-dione] | can convert to Form B |  |

— US8263065B2, “Tumor suppression using human placental perfusate and human placenta-derived intermediate natural killer cells” (Anthrogenesis Corporation, priority 2007, dated 2012)
